The subject of test [1] is MDA-MB-468. The settings on record: 72 h. An outline of the steps:
(§1)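 Breast cancer cell lines (20 µl suspension) were seeded into 384-well plates holding compound at 5 concentrations in 10-fold steps over a compound-specific 10,000-fold range, then incubated 72 h. Cell death was read first by CellTox Green fluorescence (485/520 nm), then viability by CellTiter-Glo luminescence after 10 min at room temperature. Each plate was normalised to 0.1 % DMSO and a positive kill control. EC50 was fitted from the dose-response curves and censored at the top concentration.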

A further test concerns MCF-10A. The conditions noted are these: 72 h. Put shortly: as §1
For another test, the system named is CAL-51. The settings on record: 72 h. An outline of the steps:
as §1

A further test deals with CAL-85-1. The conditions noted are these: 72 h. An outline of the steps: as §1
In test [2] the test system is MDA-MB-468. Kind of test: normalised viability (% of control), CellTiter-Blue; higher = more viable cells (about 100 = DMSO control). The settings on record: incubation time: 72 h. An outline of the steps:
(§2)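 Breast cancer cell lines in 20 µl suspension were seeded onto 384-well plates pre-loaded with compound dissolved in 5 µl medium, then incubated 72 h. CellTiter-Blue reagent (2.5 µl) was added for 2 h at 37 °C and fluorescence read at 560/590 nm. Each plate was normalised to vehicle (100) and a positive kill control (0), with Z'-factor quality control. The value is normalised viability at one listed concentration of the series.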
Background: Resazurin is reduced to fluorescent resorufin, in cell work by metabolically active cells.

Test [3] deals with BT-549. Described as above. The conditions noted are these: incubation time: 72 h. Put shortly:
as §2

Test [4] deals with MDA-MB-231. The description is as above. The settings on record: incubation time: 72 h. Put shortly:
as §2

The test system of a further test is HDQ-P1. The settings on record: 72 h. Put shortly:
as §1

The next test concerns DU-4475. The settings on record: 72 h. An outline of the steps:
as §1

In test [5] the test system is CAL-120. The settings on record: 72 h. An outline of the steps: as §1
For test [6], the system named is MDA-MB-231. The conditions noted are these: 72 h. Put shortly:
as §1

The subject of test [7] is MFM-223. The settings on record: 72 h. Put shortly: as §1
The next test concerns HCC1937. The settings on record: 72 h. An outline of the steps: as §1
The test system of test [8] is MDA-MB-436. The conditions noted are these: 72 h. Put shortly:
as §1

In another test the test system is BT-474. The settings on record: 72 h. An outline of the steps:
as §1

Test [9] concerns HCC1143. The conditions noted are these: 72 h. Put shortly:
(§3)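 Breast cancer cell lines in 20 µl suspension were seeded onto 384-well plates pre-loaded with compound dissolved in 5 µl medium, then incubated 72 h. For viability, 2.5 µl CellTiter-Blue was added for 2 h at 37 °C and fluorescence read at 560/590 nm. Each plate was normalised to vehicle and a positive kill control and checked by Z'-factor. EC50 comes from the fitted percent-inhibition dose-response curve, censored at the highest concentration; rows with zero drug sensitivity score were dropped.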

Test [10] has as its system CAL-120. The settings on record: 72 h. Put shortly:
as §3
The source holds these as a separate data set.

Test [11] concerns Hs578T. The conditions noted are these: 72 h. An outline of the steps:
as §3

Test [12] has as its system MDA-MB-231. The conditions noted are these: 72 h. Put shortly:
as §3
The source holds these as a separate data set.

Test [13] concerns MFM-223. The conditions noted are these: 72 h. An outline of the steps:
as §3
The source holds these as a separate data set.

For test [14], the system named is HCC1599. The settings on record: 72 h. An outline of the steps: as §1
Test [15] relates to HCC1143. The settings on record: 72 h. An outline of the steps: as §1
The source holds these as a separate data set.

The subject of test [16] is Hs578T. The conditions noted are these: 72 h. An outline of the steps:
as §1
The source holds these as a separate data set.

The next test relates to CAL-148. The conditions noted are these: 72 h. Put shortly: as §1
Test [17] has as its system SK-BR-3. The settings on record: 72 h. An outline of the steps: as §1
Test [18] relates to HCC1599. The settings on record: 72 h. An outline of the steps: as §3
This is another data set of the same source.

In test [19] the test system is MDA-MB-468. The settings on record: 72 h. Put shortly:
as §3
This is another data set of the same source.

The subject of test [20] is BT-549. The settings on record: 72 h. An outline of the steps: as §3
In test [21] the test system is SK-BR-3. The settings on record: 72 h. An outline of the steps:
as §3
This is another data set of the same source.

Test [22] has as its system MDA-MB-436. The conditions noted are these: 72 h. Put shortly: as §3
The source holds these as a separate data set.

Where only a bound is given, the exact number is not on record here.

For `Nc1nccc(-c2c(-c3ccc(F)cc3)ncn2C2CCCCC2)n1`, the “EC50, CellTiter-Glo” value was 213 nM with MDA-MB-468 [1], 9770 nM with MCF-10A, above 10000 nM in the test with CAL-51 and 9490 nM in the test with CAL-85-1.
With `C[C@@H]1CCN(C(=O)CC#N)C[C@@H]1N(C)c1ncnc2[nH]ccc12` [Tofacitinib], the “EC50, CellTiter-Glo” value in the test on CAL-51 was 52.1 nM.
Regarding `Cn1c(=O)c(F)c(Nc2ccc(I)cc2F)c2c(=O)n(C[C@@H](O)CO)cnc21` [TAK-733], the normalised viability in the test on MDA-MB-468 [2] (1 nM) is 99.4%; in the test on MDA-MB-468 [2] (100 nM), 84.6%; in the test on MDA-MB-468 [2] (1000 nM) it was 95%; in the test with BT-549 [3] (1 nM), 92%; in the test with BT-549 [3] (100 nM) it was 81.8%; in the test on BT-549 [3] (1000 nM), 103%. The normalised viability stood at 89.2% in the test on MDA-MB-231 [4] (1 nM), 36.1% in the test with MDA-MB-231 [4] (100 nM) and 33.8% in the test on MDA-MB-231 [4] (1000 nM). Moreover, the “EC50, CellTiter-Glo” value with MDA-MB-468 [1] stood at 29.8 nM; with HDQ-P1 it was 6.97 nM; in the test on MCF-10A, 3.49 nM; in the test on DU-4475 it was 7.03 nM; with CAL-120 [5], 66.6 nM; in the test with MDA-MB-231 [6] it was 130 nM. Further, the “EC50, CellTiter-Glo” value came to 371 nM in the test with MFM-223 [7]; 3.04 nM in the test on CAL-51; 341 nM in the test on HCC1937; 125 nM with CAL-85-1; 452 nM with MDA-MB-436 [8]; 33.5 nM in the test on BT-474. Besides, the “EC50, CellTiter-Blue viability” value with HCC1143 [9] came out at 14.2 nM; in the test with CAL-120 [10], 401 nM; in the test with Hs578T [11] it was 114 nM; with MDA-MB-231 [12], 4.92 nM; in the test on MFM-223 [13], 17.5 nM.
Take `Cc1cc(C(C)Nc2ccccc2)c2nc(N3CCOCC3)cc(=O)n2c1` (stereo not given) [TGX-221]: the “EC50, CellTiter-Glo” value in the test with MDA-MB-468 [1] is 3560 nM; in the test on CAL-120 [5] it was above 10000 nM; in the test with CAL-51, 22.8 nM; with BT-474, 709 nM.
For `CN(c1ccccc1CNc1nc(Nc2ccc3c(c2)CC(=O)N3)ncc1C(F)(F)F)S(C)(=O)=O`, the “EC50, CellTiter-Glo” value came out at 4380 nM with HCC1599 [14]; 1750 nM with MDA-MB-468 [1]; 3640 nM in the test on HCC1143 [15]; 1820 nM in the test with HDQ-P1; 1490 nM in the test with MCF-10A; 2130 nM in the test on DU-4475. For the same compound, the “EC50, CellTiter-Glo” value is 8760 nM with CAL-120 [5]; 4360 nM in the test on Hs578T [16]; 1990 nM in the test on MDA-MB-231 [6]; 9400 nM in the test with MFM-223 [7]; 1110 nM in the test on CAL-51; 1880 nM in the test on CAL-148. For the same compound, the “EC50, CellTiter-Glo” value came out at 3190 nM in the test with SK-BR-3 [17]; 6520 nM with HCC1937; 2450 nM with CAL-85-1; 5620 nM in the test with MDA-MB-436 [8]; 2430 nM in the test with BT-474.
Regarding `O=C(c1ccc(OCCN2CCCCC2)cc1)c1c(-c2ccc(O)cc2)sc2cc(O)ccc12` [Raloxifene], the normalised viability was 98.6% in the test with MDA-MB-468 [2] (10 nM); 106% with MDA-MB-468 [2] (1000 nM); 78.2% in the test with MDA-MB-468 [2] (10000 nM); 77.5% with BT-549 [3] (10 nM); 101% with BT-549 [3] (1000 nM); 56.8% in the test on BT-549 [3] (10000 nM). The normalised viability came out at 85.3% with MDA-MB-231 [4] (10 nM), 89.3% with MDA-MB-231 [4] (1000 nM) and 102% with MDA-MB-231 [4] (10000 nM). Besides, the “EC50, CellTiter-Glo” value is 9620 nM in the test on HCC1599 [14]; 4640 nM with MDA-MB-468 [1]; 2260 nM with MFM-223 [7]; 3610 nM with CAL-85-1; 8260 nM with BT-474.
Consider `O=c1[nH]cc(F)c(=O)[nH]1` [Fluorouracil], for which the normalised viability in the test with MDA-MB-468 [2] (10 nM) was 99.4%; with MDA-MB-468 [2] (1000 nM), 103%; in the test on MDA-MB-468 [2] (10000 nM), 76%; with BT-549 [3] (10 nM), 101%; in the test with BT-549 [3] (1000 nM), 90.3%; with BT-549 [3] (10000 nM), 74.2%. Also, the normalised viability with MDA-MB-231 [4] (10 nM) worked out at 104%; in the test with MDA-MB-231 [4] (1000 nM), 97.5%; in the test with MDA-MB-231 [4] (10000 nM), 64.7%. Further, the “EC50, CellTiter-Glo” value with SK-BR-3 [17] turned out to be 556 nM; with CAL-85-1, 272 nM; with MDA-MB-436 [8] it was 425 nM. Moreover, the “EC50, CellTiter-Blue viability” value in the test with HCC1599 [18] was 2520 nM; with MDA-MB-468 [19] it was above 10000 nM; in the test with BT-549 [20] it was 1240 nM; in the test with CAL-120 [10], 2530 nM; in the test on MDA-MB-231 [12], 2880 nM; in the test with SK-BR-3 [21], 532 nM. Besides, the “EC50, CellTiter-Blue viability” value in the test with MDA-MB-436 [22] was found to be 7520 nM.

These data come from the supplement of paper PMC4862054.
